Tested on: single deposited B-cells
Assay: co-cultivation of single deposited B-cells with EL-4 B5 feeder cells; IgG in supernatant by ELISA
Format: cell-based, rabbit
Conditions: for average productivity/plate, IgG+ wells / frequency/plate rbIgG+: non-immunized animal
Method: Single cell sorted B-cells were cultured in 96-well plates with 200 μl/well EL-4 B5 medium with Pansorbin Cells (SAC) (Calbiochem (Merck), Darmstadt, Deutschland), EL-4 B5 cells (0-5×10^4/well) and rabbit thymocyte supernatant or cytokine mix, respectively, for 7 days at 37° C. in an atmosphere of 5% CO2 in the incubator. B-cell culture supernatants were removed for screening and the cells harvested immediately for variable region gene cloning or frozen at −80° C. in 100 μl RLT buffer (Qiagen, Hilden, Germany).
A mixture of 0.5 μg/ml of biotinylated mouse anti-rabbit IgG antibody (Sigma-Aldrich) and 0.35 μg/ml anti-rabbit IgG HRP conjugate (Sigma-Aldrich) was transferred to 384 well streptavidin coated microtiter plates (MicroCoat Biotechnologie GmbH). Dilutions of B-cell supernatants in PBS supplemented with 0.5% BSA and 0.05% Tween®-20 were added and incubated for 90 min at RT. After repeated washing (6×) with PBST (phosphate buffered saline with 0.2% Tween buffer the plates were developed with BM Blue® HRP substrate solution and color formation was measured by absorbance at 370 nm. A commercial rabbit IgG (Sigma-Aldrich) was used as a calibration standard.

[1] = PMA 0.048 ng/ml, 3 Gy, 15k/Well
[2] = PMA 0.048 ng/ml, 4 Gy, 20k/Well
[3] = PMA 0.048 ng/ml, 5 Gy, 20k/Well
[4] = PMA 0.048 ng/ml, 8 Gy, 20k/Well
[5] = PMA 0.048 ng/ml, 50 Gy, 50k/Well
[6] = PMA 0.109 ng/ml, 3 Gy, 15k/Well
[7] = PMA 0.109 ng/ml, 4 Gy, 20k/Well
[8] = PMA 0.109 ng/ml, 5 Gy, 20k/Well
[9] = PMA 0.109 ng/ml, 8 Gy, 20k/Well
[10] = PMA 0.109 ng/ml, 50 Gy, 50k/Well
[11] = PMA 0.25 ng/ml, 50 Gy, 50k/Well
[12] = PMA 0.57 ng/ml, 50 Gy, 50k/Well
[13] = PMA 1.3 ng/ml, 3 Gy, 15k/Well, HSA immunized rabbit
[14] = c(PMA) 0.015 ng/ml, 4 Gy EL-4 B5
[15] = c(PMA) 0.03 ng/ml, 4 Gy EL-4 B5
[16] = c(PMA) 0.03 ng/ml, 50 Gy EL-4 B5
[17] = c(PMA) 0.06 ng/ml, 4 Gy EL-4 B5
[18] = c(PMA) 0.125 ng/ml, 4 Gy EL-4 B5
[19] = c(PMA) 0.25 ng/ml, 4 Gy EL-4 B5
[20] = c(PMA) 0.25 ng/ml, 50 Gy EL-4 B5
[21] = c(PMA) 1.3 ng/ml, 50 Gy EL-4 B5

SMILES: CCCCCCCCCCCCCC(=O)O[C@@H]1[C@@H](C)[C@@]2(O)[C@@H](C=C(CO)C[C@]3(O)C(=O)C(C)=C[C@@H]23)[C@@H]2C(C)(C)[C@]12OC(C)=O [PMA, phorbol-12-myristate-13-acetate]
- influence of PMA concentration on frequency of IgG positive wells or productivity (4 Gy irradiated EL-4 B5 cells, 0.015 ng/ml to 1.3 ng/ml PMA): no influence
- effect of the addition of PMA on frequency and productivity (50 Gy irradiated EL-4 B5 cells): concentration dependent effect
- Average IgG Productivity of all IgG+ wells [1]: 1.405 µg/mL
- IgG+ Frequency [1]: 48.8 % total wells
- Average IgG Productivity of all IgG+ wells [2]: 5.465 µg/mL
- IgG+ Frequency [2]: 73.8 % total wells
- Average IgG Productivity of all IgG+ wells [3]: 5.769 µg/mL
- IgG+ Frequency [3]: 71.4 % total wells
- Average IgG Productivity of all IgG+ wells [4]: 5.739 µg/mL
- IgG+ Frequency [4]: 84.5 % total wells
- Average IgG Productivity of all IgG+ wells [5]: 2.821 µg/mL
- IgG+ Frequency [5]: 14.3 % total wells
- frequency per plate of rbIgG-positive wells (PMA 0.08 ng/ml, 0.031x CM, 5,000 non-irradiated EL-4 B5 cells per well): 39.3 % total
- frequency per plate of rbIgG-positive wells (PMA 0.08 ng/ml, 0.1x CM, 5,000 non-irradiated EL-4 B5 cells per well): 44.0 % total
- frequency per plate of rbIgG-positive wells (PMA 0.08 ng/ml, 0.31x CM, 5,000 non-irradiated EL-4 B5 cells per well): 51.2 % total
- frequency per plate of rbIgG-positive wells (PMA 0.08 ng/ml, 1x CM, 5,000 non-irradiated EL-4 B5 cells per well): 65.5 % total
- frequency per plate of rbIgG-positive wells (PMA 0.08 ng/ml, 2x CM, 5,000 non-irradiated EL-4 B5 cells per well): 65.5 % total
- Average IgG Productivity of all IgG+ wells [6]: 2.932 µg/mL
- IgG+ Frequency [6]: 47.6 % total wells
- Average IgG Productivity of all IgG+ wells [7]: 5.772 µg/mL
- IgG+ Frequency [7]: 76.2 % total wells
- Average IgG Productivity of all IgG+ wells [8]: 5.335 µg/mL
- IgG+ Frequency [8]: 83.3 % total wells
- Average IgG Productivity of all IgG+ wells [9]: 5.614 µg/mL
- IgG+ Frequency [9]: 77.4 % total wells
- Average IgG Productivity of all IgG+ wells [10]: 1.942 µg/mL
- IgG+ Frequency [10]: 16.7 % total wells
- frequency per plate of rbIgG-positive wells (PMA 0.14 ng/ml, 0.031x CM, 5,000 non-irradiated EL-4 B5 cells per well): 35.7 % total
- frequency per plate of rbIgG-positive wells (PMA 0.14 ng/ml, 0.1x CM, 5,000 non-irradiated EL-4 B5 cells per well): 52.4 % total
- frequency per plate of rbIgG-positive wells (PMA 0.14 ng/ml, 0.31x CM, 5,000 non-irradiated EL-4 B5 cells per well): 54.8 % total
- frequency per plate of rbIgG-positive wells (PMA 0.14 ng/ml, 1x CM, 5,000 non-irradiated EL-4 B5 cells per well): 69.0 % total
- frequency per plate of rbIgG-positive wells (PMA 0.14 ng/ml, 2x CM, 5,000 non-irradiated EL-4 B5 cells per well): 54.8 % total
- frequency per plate of rbIgG-positive wells (PMA 0.25 ng/ml, 0.031x CM, 5,000 non-irradiated EL-4 B5 cells per well): 53.6 % total
- frequency per plate of rbIgG-positive wells (PMA 0.25 ng/ml, 0.1x CM, 5,000 non-irradiated EL-4 B5 cells per well): 54.8 % total
- frequency per plate of rbIgG-positive wells (PMA 0.25 ng/ml, 0.31x CM, 5,000 non-irradiated EL-4 B5 cells per well): 73.8 % total
- frequency per plate of rbIgG-positive wells (PMA 0.25 ng/ml, 1x CM, 5,000 non-irradiated EL-4 B5 cells per well): 65.5 % total
- frequency per plate of rbIgG-positive wells (PMA 0.25 ng/ml, 2x CM, 5,000 non-irradiated EL-4 B5 cells per well): 48.8 % total
- Average IgG Productivity of all IgG+ wells (PMA 0.25 ng/ml, 3 Gy, 15k/Well): 3.094 µg/mL
- IgG+ Frequency (PMA 0.25 ng/ml, 3 Gy, 15k/Well): 47.6 % total wells
- Average IgG Productivity of all IgG+ wells (PMA 0.25 ng/ml, 4 Gy, 20k/Well): 4.61 µg/mL
- IgG+ Frequency (PMA 0.25 ng/ml, 4 Gy, 20k/Well): 75 % total wells
- Average IgG Productivity of all IgG+ wells (PMA 0.25 ng/ml, 5 Gy, 20k/Well): 5.313 µg/mL
- IgG+ Frequency (PMA 0.25 ng/ml, 5 Gy, 20k/Well): 84.5 % total wells
- Average IgG Productivity of all IgG+ wells (PMA 0.25 ng/ml, 8 Gy, 20k/Well): 5.945 µg/mL
- IgG+ Frequency (PMA 0.25 ng/ml, 8 Gy, 20k/Well): 88.1 % total wells
- Average IgG Productivity of all IgG+ wells [11]: 1.893 µg/mL
- IgG+ Frequency [11]: 20.2 % total wells
- frequency per plate of rbIgG-positive wells (PMA 0.43 ng/ml, 0.031x CM, 5,000 non-irradiated EL-4 B5 cells per well): 67.9 % total
- frequency per plate of rbIgG-positive wells (PMA 0.43 ng/ml, 0.1x CM, 5,000 non-irradiated EL-4 B5 cells per well): 72.6 % total
- frequency per plate of rbIgG-positive wells (PMA 0.43 ng/ml, 0.31x CM, 5,000 non-irradiated EL-4 B5 cells per well): 71.4 % total
- frequency per plate of rbIgG-positive wells (PMA 0.43 ng/ml, 1x CM, 5,000 non-irradiated EL-4 B5 cells per well): 50.0 % total
- frequency per plate of rbIgG-positive wells (PMA 0.43 ng/ml, 2x CM, 5,000 non-irradiated EL-4 B5 cells per well): 45.2 % total
- Average IgG Productivity of all IgG+ wells (PMA 0.57 ng/ml, 3 Gy, 15k/Well): 6.067 µg/mL
- IgG+ Frequency (PMA 0.57 ng/ml, 3 Gy, 15k/Well): 32.1 % total wells
- Average IgG Productivity of all IgG+ wells (PMA 0.57 ng/ml, 4 Gy, 20k/Well): 5.834 µg/mL
- IgG+ Frequency (PMA 0.57 ng/ml, 4 Gy, 20k/Well): 72.6 % total wells
- Average IgG Productivity of all IgG+ wells (PMA 0.57 ng/ml, 5 Gy, 20k/Well): 5.269 µg/mL
- IgG+ Frequency (PMA 0.57 ng/ml, 5 Gy, 20k/Well): 86.9 % total wells
- Average IgG Productivity of all IgG+ wells (PMA 0.57 ng/ml, 8 Gy, 20k/Well): 5.72 µg/mL
- IgG+ Frequency (PMA 0.57 ng/ml, 8 Gy, 20k/Well): 81 % total wells
- Average IgG Productivity of all IgG+ wells [12]: 4.876 µg/mL
- IgG+ Frequency [12]: 84.5 % total wells
- frequency per plate of rbIgG-positive wells (PMA 0.73 ng/ml, 0.031x CM, 5,000 non-irradiated EL-4 B5 cells per well): 76.2 % total
- frequency per plate of rbIgG-positive wells (PMA 0.73 ng/ml, 0.1x CM, 5,000 non-irradiated EL-4 B5 cells per well): 75.0 % total
- frequency per plate of rbIgG-positive wells (PMA 0.73 ng/ml, 0.31x CM, 5,000 non-irradiated EL-4 B5 cells per well): 67.9 % total
- frequency per plate of rbIgG-positive wells (PMA 0.73 ng/ml, 1x CM, 5,000 non-irradiated EL-4 B5 cells per well): 36.9 % total
- frequency per plate of rbIgG-positive wells (PMA 0.73 ng/ml, 2x CM, 5,000 non-irradiated (0 Gy) EL-4 B5 cells per well): 48.8 % total
- Average IgG Productivity of all IgG+ wells [13]: 4.937 µg/mL
- IgG+ Frequency [13]: 8.3 % total wells
- Average IgG Productivity of all IgG+ wells (PMA 1.3 ng/ml, 4 Gy, 20k/Well): 5.011 µg/mL
- IgG+ Frequency (PMA 1.3 ng/ml, 4 Gy, 20k/Well): 72.6 % total wells
- Average IgG Productivity of all IgG+ wells (PMA 1.3 ng/ml, 5 Gy, 20k/Well): 4.8 µg/mL
- IgG+ Frequency (PMA 1.3 ng/ml, 5 Gy, 20k/Well): 84.5 % total wells
- Average IgG Productivity of all IgG+ wells (PMA 1.3 ng/ml, 8 Gy, 20k/Well): 5.198 µg/mL
- IgG+ Frequency (PMA 1.3 ng/ml, 8 Gy, 20k/Well): 88.1 % total wells
- Average IgG Productivity of all IgG+ wells (PMA 1.3 ng/ml, 50 Gy, 50k/Well): 5.427 µg/mL
- IgG+ Frequency (PMA 1.3 ng/ml, 50 Gy, 50k/Well): 83.3 % total wells
- average productivity/plate, IgG+ wells [14]: 3.90 µg/mL
- frequency/plate rbIgG+ [14]: 54.0 % total
- average productivity/plate, IgG+ wells [15]: 3.90 µg/mL
- frequency/plate rbIgG+ [15]: 55.6 % total
- average productivity/plate, IgG+ wells [16]: 1.36 µg/mL
- frequency/plate rbIgG+ [16]: 52.4 % total
- average productivity/plate, IgG+ wells [17]: 3.72 µg/mL
- frequency/plate rbIgG+ [17]: 57.5 % total
- average productivity/plate, IgG+ wells [18]: 3.78 µg/mL
- frequency/plate rbIgG+ [18]: 56.0 % total
- average productivity/plate, IgG+ wells [19]: 3.83 µg/mL
- frequency/plate rbIgG+ [19]: 64.3 % total
- average productivity/plate, IgG+ wells [20]: 2.48 µg/mL
- frequency/plate rbIgG+ [20]: 54.4 % total
- average productivity/plate, IgG+ wells (c(PMA) 0.5 ng/ml, 4 Gy EL-4 B5): 4.06 µg/mL
- frequency/plate rbIgG+ (c(PMA) 0.5 ng/ml, 4 Gy EL-4 B5): 57.5 % total
- average productivity/plate, IgG+ wells (c(PMA) 1.3 ng/ml, 4 Gy EL-4 B5): 3.57 µg/mL
- frequency/plate rbIgG+ (c(PMA) 1.3 ng/ml, 4 Gy EL-4 B5): 56.0 % total
- average productivity/plate, IgG+ wells [21]: 3.51 µg/mL
- frequency/plate rbIgG+ [21]: 58.7 % total

From patent US11952586B2, “B-cell cultivation method” (Hoffmann-La Roche Inc., priority 2017, dated 2024)
